Columns and labels:
normal rats = test: Cardiorenal actions after intravenous bolus in anesthetized normal rats; assay type: in vivo, Wistar rats; conditions: for MAP mean arterial pressure / HR heart rate / RAP right atrial pressure / UKV urine potassium excretion / UNaV urine sodium excretion / UV urine volume / UcGMPV urine cGMP volume / PcGMP plasma cGMP: mean ± SEM; for MAP mean arterial pressure: n = 4
Protocol: (§1) The results obtained are expressed as the means ±SEM. In organ chamber studies, n equals the number of dogs from which rings were taken. Rings with and without endothelium were studied in parallel, and Student's t-test for unpaired observations was used to determine statistical significance among the responses of rings with and without endothelium and between responses of arteries and veins. In rat studies, the data were analyzed using ANOVA for repeated measures followed by Fisher's least significant difference test when appropriate within the group. Data between groups were analyzed by Student's unpaired t-test. Statistical significance was determined at p<0.05.
Experiments were conducted in accordance with the Animal Welfare Act. Wistar rats and spontaneously hypertensive rats (SHR) (400 g; Harlan Sprague-Dawley, Indianapolis, Ind.) were anesthetized with Inactin (100 mg/kg; intraperitoneal; BYK Gulden, Konstanz, Germany). The body temperature was maintained between 36° and 38° C. by a heating pad. Tracheostomy was performed; however, the animals were not artificially ventilated. Polyethylene catheters (PE-50; Becton Dickinson Co., Parsippany, N.J.) were placed in the left Jugular vein for infusions of saline and drugs, in the right jugular vein to right atrium to monitor right atrial pressure, and in the carotid artery for the collection of blood samples and to monitor mean arterial pressure. A PE-90 catheter was placed in the bladder for urine collection.
Experiments were conducted in three groups in normal rats: ANP group (n=4), CNP group (n=4), and VNP group (n=4). VNP also was studied in SHR rats (n=4). Intravenous infusions of saline solution (0.9% NaCl) were performed (1 ml/100 gm body weight/hr) through the left jugular vein catheter. After completion of surgery, rats were allowed to stabilize for 30 minutes. In each group, a 15-min baseline period followed. After the baseline period, saline solution (0.9% NaCl) was administered in a bolus fashion (0.1 ml) and was followed by a 15-min period. After the saline period, the peptide (ANP, CNP or VNP) was administered in a bolus fashion (0.1 ml) at 5 μg/kg which was followed by a 15-min period. This was followed by a second bolus (0.1 ml) at 50 μg/kg and a 15-min period. After a 30-min washout, a 15-min recovery period followed. During each experimental period, mean arterial pressure (MAP), heart rate (HR), and right atrial pressure (RAP) were measured. At the midpoint of baseline, second bolus fashion (50 μg/kg) and recovery periods, blood was sampled for plasma cGMP. At the end of each period, urine was measured for volume (UV), and samples were stored for electrolytes and cGMP analysis.
Blood for plasma cGMP analysis was collected into EDTA tubes, immediately placed on ice, and centrifuged at […] at 4° C. Plasma was separated and stored at -20° C. until assay. Urine for cGMP determination was heated to >90° C. before storage. Plasma and urine cGMP were determined by a specific RIA as previously described by A. L. Steiner et al., J. Hypertension, 5 (Suppl. 5) 551-553 (1987).

[1] = system: isolated normal canine blood vessels; test: Organ chamber isometric force: relaxation of phenylephrine-contracted vessel rings; parameters: species or system dog; conditions: for relaxation: maximal dose (3×10^-6 M); for maximal response, percent change in tension from a contraction to phenylephrine: peptide 3 × 10^-6 M, mean ± SEM
Protocol: as §1
Rings cut from femoral, saphenous, renal and pulmonary arteries and veins obtained from random source mongrel dogs (anesthetized with 30 mg/kg pentobarbital sodium intravenously) were suspended for the measurement of isometric force in organ chambers filled with aerated (95% O2 and 5% CO2) modified Krebs-Ringer bicarbonate solution (composition in mM: 118.3 NaCl, 4.7 KCl, 2.5 CaCl2, 1.2 MgSO4, 1.2 KH2 PO4, 25.0 NaHCO3, 0.026 calcium sodium EDTA, and 11.1 dextrose; control solution) at 37° C. In one-half rings, the endothelium was removed by gently rubbing the intimal surface with a cotton swab wetted with control solution. Each ring was stretched to the optimal point on its length-tension curve as determined by the tension developed to norepinephrine (3×10^-7 M) at each level of stretch. The presence of endothelium was determined at the beginning of the experiment by a relaxation to acetylcholine (10^-6 M) during a contraction to norepinephrine at optimal length. The maximal tension of each ring was determined by norepinephrine (10^-4 M). To study responses to ANP, CNP and VNP, the rings were contracted with phenylephrine (10^-6 M). These contractions averaged 30-40% of the maximal contraction to norepinephrine. The peptides were added cumulatively once the contraction had stabilized.
The following commercially available drugs were used: acetylcholine chloride (Sigma Chemical, St. Louis, Mo.), human ANP and human CNP (Peninsula Laboratories, Belmont, Calif.), L-norepinephrine bitartrate (Sigma), phenylephrine bitartrate (Sigma). All drugs were dissolved in distilled water immediately prior to study, and the concentrations are reported as the final molar concentration (M) in the organ chamber.

[2] = normal rats, high dose (50 μg/kg) bolus

CC[C@H](C)[C@@H]1NC(=O)[C@H](CCCNC(=N)N)NC(=O)[C@H](CC(=O)O)NC(=O)[C@H](CC(C)C)NC(=O)[C@H](CCCCN)NC(=O)[C@H](CC(C)C)NC(=O)CNC(=O)[C@H](Cc2ccccc2)NC(=O)[C@@H](NC(=O)CNC(=O)[C@H](CCCCN)NC(=O)[C@H](CO)NC(=O)[C@H](CC(C)C)NC(=O)CN)CSSC[C@@H](C(=O)O)NC(=O)CNC(=O)[C@H](CC(C)C)NC(=O)CNC(=O)[C@H](CO)NC(=O)[C@H](CCSC)NC(=O)[C@H](CO)NC(=O)CNC1=O [CNP, C-type natriuretic peptide]
natriuretic action (in words) (normal rats; in vivo, rat): modest but significant natriuretic actions
change in MAP and RAP (in words) (normal rats; [2]): significant decrease
change in urine flow, sodium excretion, plasma cGMP and urinary cGMP volume (in words) (normal rats; [2]): increased
MAP mean arterial pressure (normal rats; normal rats, iv bolus 5 μg/kg, 15-min period): 100 ± 12 mmHg
HR heart rate (normal rats; normal rats, iv bolus 5 μg/kg): 363 ± 19 beats/min
RAP right atrial pressure (normal rats; normal rats, iv bolus 5 μg/kg): 0 ± 1.5 mmHg
UKV urine potassium excretion (normal rats; normal rats, iv bolus 5 μg/kg): 5.1 ± 1.6 µmol/min
UNaV urine sodium excretion (normal rats; normal rats, iv bolus 5 μg/kg): 4.1 ± 1.4 µmol/min
UV urine volume (normal rats; normal rats, iv bolus 5 μg/kg): 27.6 ± 2.0 µL/min
UcGMPV urine cGMP volume (normal rats; normal rats, iv bolus 5 μg/kg): 97 ± 32 pmol/min
HR heart rate (normal rats; normal rats, iv bolus 50 μg/kg): 365 ± 19 beats/min
PcGMP plasma cGMP (normal rats; normal rats, iv bolus 50 μg/kg): 19.4 ± 2.7 pmol/mL
RAP right atrial pressure (normal rats; normal rats, iv bolus 50 μg/kg): -2.3 ± 0.6 mmHg
UKV urine potassium excretion (normal rats; normal rats, iv bolus 50 μg/kg): 7.6 ± 2.5 µmol/min
UNaV urine sodium excretion (normal rats; normal rats, iv bolus 50 μg/kg): 12.1 ± 3.2 µmol/min
UV urine volume (normal rats; normal rats, iv bolus 50 μg/kg): 66.4 ± 7.4 µL/min
UcGMPV urine cGMP volume (normal rats; normal rats, iv bolus 50 μg/kg): 323 ± 81 pmol/min
MAP mean arterial pressure (normal rats; normal rats, recovery period after 30-min washout): 104 ± 11 mmHg
HR heart rate (normal rats; normal rats, recovery period): 363 ± 16 beats/min
PcGMP plasma cGMP (normal rats; normal rats, recovery period): 3.6 ± 0.3 pmol/mL
RAP right atrial pressure (normal rats; normal rats, recovery period): -0.1 ± 0.9 mmHg
UKV urine potassium excretion (normal rats; normal rats, recovery period): 2.4 ± 1.1 µmol/min
UNaV urine sodium excretion (normal rats; normal rats, recovery period): 2.9 ± 0.3 µmol/min
UV urine volume (normal rats; normal rats, recovery period): 21.2 ± 6.3 µL/min
UcGMPV urine cGMP volume (normal rats; normal rats, recovery period): 70 ± 39 pmol/min
MAP mean arterial pressure (normal rats; normal rats, second iv bolus 50 μg/kg, 15-min period): 87 ± 9 mmHg
relaxation ([1]; femoral and saphenous arteries): no effects
maximal response, percent change in tension from a contraction to phenylephrine ([1]; femoral artery, with endothelium, phenylephrine 10^-6 M): 4 ± 3%
maximal response, percent change in tension from a contraction to phenylephrine ([1]; femoral artery, without endothelium): 10 ± 6%
maximal response, percent change in tension from a contraction to phenylephrine ([1]; femoral vein, with endothelium): 37 ± 8%
maximal response, percent change in tension from a contraction to phenylephrine ([1]; femoral vein, without endothelium): 73 ± 8%
relaxation ([1]; femoral veins): 90%
maximal response, percent change in tension from a contraction to phenylephrine ([1]; pulmonary artery, with endothelium): 12 ± 3%
maximal response, percent change in tension from a contraction to phenylephrine ([1]; pulmonary artery, without endothelium): 33 ± 5%
maximal response, percent change in tension from a contraction to phenylephrine ([1]; pulmonary vein, with endothelium): 31 ± 6%
maximal response, percent change in tension from a contraction to phenylephrine ([1]; pulmonary vein, without endothelium): 66 ± 4%
maximal response, percent change in tension from a contraction to phenylephrine ([1]; renal artery, with endothelium): 8 ± 2%
maximal response, percent change in tension from a contraction to phenylephrine ([1]; renal artery, without endothelium): 8 ± 2%
maximal response, percent change in tension from a contraction to phenylephrine ([1]; renal vein, with endothelium): 43 ± 4%
maximal response, percent change in tension from a contraction to phenylephrine ([1]; renal vein, without endothelium): 71 ± 5%
maximal response, percent change in tension from a contraction to phenylephrine ([1]; saphenous artery, with endothelium): 11 ± 7%
maximal response, percent change in tension from a contraction to phenylephrine ([1]; saphenous artery, without endothelium): 14 ± 8%
maximal response, percent change in tension from a contraction to phenylephrine ([1]; saphenous vein, with endothelium): 16 ± 1%
maximal response, percent change in tension from a contraction to phenylephrine ([1]; saphenous vein, without endothelium): 43 ± 10%
relaxation ([1]; saphenous veins): 40%
relaxation, % of the contraction to phenylephrine ([1]; systemic arteries (femoral, saphenous and renal)): less than 30%
